Laboratory results from patent US9931351B2, “Method for improving leptin resistance” (Kyoto University, priority 2013, dated 2018).

Legend:
Assay type in all cases: in vivo
[1] = test system: wild type rats having diet-induced obesity; test: Test Example 8: effects to improve metabolism in rats having diet-induced obesity caused by a high fat diet; conditions: wild type rats obese after four-week high fat diet, continued high fat diet, 20 mg/kg/day intraperitoneal once a day, further four weeks; for weight of the adipose tissues: epididymal
Method: Eight-week old male wild type rats were divided into two groups (n =5 and 15) and kept for four weeks under a standard diet (SD) or a high fat diet (HFD) condition. All the rats fed with the standard diet for the four weeks were assigned to the group “vehicle (V)” and fed with the standard diet for further four weeks, and then the body weight of the rats was measured. The rats fed with the high fat diet for the four weeks were divided into three groups: “vehicle”, “Compound 57”, and “Compound 32”, and fed with the high fat diet for further four weeks, and then the body weight of the rats was measured. The vehicle, Compound 57, and Compound 32 were administered to the rats by intraperitoneal injection once a day. The each dosage of Compounds 57 and 32 was 20 mg/kg/day. Finally the rats were sacrificed, blood, epididymal adipose tissues, and the liver were collected, and the weight of the adipose tissues, the liver weight, and the plasma levels of glucose, insulin, total cholesterol, triglyceride, and nonesterified fatty acid were measured (n =5 for each group).

[2] = test system: leptin-deficient ob/ob mice; test: Test Example 2: effects to improve metabolism in leptin-deficient ob/ob mice; conditions: standard diet, 50 mg/kg/day intraperitoneal once a day, four weeks; for weight of the adipose tissues: epididymal; for nonesterified fatty acid levels / total cholesterol levels / triglyceride levels: plasma
Method: Ob/ob mice cannot produce leptin due to a mutation in the leptin gene (Zhang et al. Nature 372: 425-432, 1994). Eight-week old male ob/ob mice, purchased from CHARLES RIVER LABORATORIES JAPAN, INC., were divided into two treatment groups: “Vehicle (V)” and “Compound 57”. The mice were kept for four weeks with ad libitum feeding of standard diet (SD), and the body weight and the food intake of the mice were measured. The vehicle and Compound 57 were administered to the mice by intraperitoneal injection once a day. The dosage of Compound 57 was 50 mg/kg/day. After the four weeks the mice were sacrificed and blood, epididymal adipose tissues, and the liver were collected. The weight of the adipose tissues, the liver weight, the liver triglyceride levels, and the plasma levels of glucose, insulin, total cholesterol (T-chol), triglyceride (TG) and nonesterified fatty acid (NEFA) were measured (n=5 for each group). The equivalent dosage of Compound 32 was tested in a similar manner (n=5 for each group).

[3] = test system: A-ZIP/F-1 mice; test: Test Example 3: effects to improve metabolism in A-ZIP/F-1 mice, a model of generalized lipodystrophy; conditions: standard diet, 50 mg/kg/day intraperitoneal once a day, four weeks; for level of nonesterified fatty acid / level of total cholesterol / level of triglyceride: plasma
Description: A-ZIP/F-1 mice, which are used as a model of generalized lipodystrophy, have substantially no white adipocyte and thus cannot produce leptin (Moitra et al. Genes Dev 12: 3168-3181, 1998). Eight-week old male A-ZIP/F-1 mice, gifted from Dr. Reitman of National Institutes of Health, were divided into two treatment groups: “Vehicle (V)” and “Compound 57”. The mice were kept for four weeks with ad libitum feeding of standard diet (SD), and the body weight and the food intake of the mice were measured. The vehicle and Compound 57 were administered to the mice by intraperitoneal injection once a day. The dosage of Compound 57 was 50 mg/kg/day. After the four weeks the mice were sacrificed and blood, epididymal adipose tissues, and the liver were collected. The weight of the adipose tissues, the liver weight, the liver triglyceride levels, the plasma levels of glucose, insulin, total cholesterol (T-chol), triglyceride (TG) and nonesterified fatty acid (NEFA) were measured (n=5 for each group). The equivalent dosage of Compound 32 was tested in a similar manner (n=5 for each group).

Nc1c(/N=N/c2ccc(-c3cccc4c3sc3ccccc34)nc2)cc(S(=O)(=O)[O-])c2ccccc12.[Na+] [Compound 57, 4-amino-3-(6-dibenzothiophene-4-ylpyridine-3-ylazo)naphthalene-1-sulfonic acid sodium salt]
body weight [1]: decreased | plasma level of glucose [1]: decreased | plasma level of insulin [1]: decreased | plasma level of nonesterified fatty acid [1]: decreased | plasma level of total cholesterol [1]: decreased | plasma level of triglyceride [1]: decreased | weight of the adipose tissues [1]: decreased | body weight [2]: decreased | food intake [2]: did not change | liver triglyceride levels [2]: decreased | liver weight [2]: decreased | plasma insulin levels [2]: did not change | random plasma glucose levels [2]: did not change | weight of the adipose tissues [2]: decreased | nonesterified fatty acid levels [2]: decreased | total cholesterol levels [2]: decreased | triglyceride levels [2]: did not clearly change | body weight [3]: slightly decreased | food intake [3]: did not change | liver triglyceride levels [3]: decreased | liver weight [3]: decreased | plasma insulin levels [3]: did not change | random plasma glucose levels [3]: did not change | level of nonesterified fatty acid [3]: decreased | level of total cholesterol [3]: decreased | level of triglyceride [3]: decreased

Cc1cc(F)ccc1-c1ccc(/N=N/c2cc(S(=O)(=O)[O-])c3ccccc3c2N)cn1.[Na+] [Compound 32, 4-amino-3-[6-(4-fluoro-2-methylphenyl)pyridine-3-ylazo]naphthalene-1-sulfonic acid sodium salt]
body weight [1]: decreased | plasma level of glucose [1]: decreased | plasma level of insulin [1]: decreased | plasma level of nonesterified fatty acid [1]: decreased | plasma level of total cholesterol [1]: decreased | plasma level of triglyceride [1]: decreased | weight of the adipose tissues [1]: decreased | body weight [2]: did not | food intake [2]: did not change | liver triglyceride levels [2]: did not change | liver weight [2]: did not change | plasma insulin levels [2]: did not change | random plasma glucose levels [2]: did not change | weight of the adipose tissues [2]: did not change | nonesterified fatty acid levels [2]: did not change | total cholesterol levels [2]: did not change | triglyceride levels [2]: did not change | body weight [3]: did not | food intake [3]: did not change | liver triglyceride levels [3]: did not change | liver weight [3]: did not change | plasma insulin levels [3]: did not change | random plasma glucose levels [3]: did not change | level of nonesterified fatty acid [3]: did not change | level of total cholesterol [3]: did not change | level of triglyceride [3]: did not change
